According to patent US10046007B2, “Compositions and methods for treatment of short telomere disorders” (PRESCIENT PHARMA LLC, priority 2015, dated 2018):
Entries after “also recorded” stand apart in the source; their conditions may differ. Where two headings read alike, the source gives them in different places.

Tested on: bleomycin-induced pulmonary fibrosis
Method: Bleomycin solution: bleomycin (commercially available from SigmaAldrich) in PBS was used for intra-tracheal bleomycin administration. (0.04 U of bleomycin in 50 μl in PBS/mouse/per inhalation).
13 female mice (commercially available from Charles River Laboratories, BALB/C) were randomly divided into 4 groups, as follows:
Each mouse was anesthetized with 87.5 mg ketamine/kg and 12.5 mg xyline/kg cocktail 0.1 ml/20 g body weight IM. For both lithium and bleomycin intra-tracheal administration, tracheal intubation was performed using with a 23 gauge IV catheter through the mouth, followed by insertion of PE-10 tubing into the trachea. After placement of the PE-10 tubing inside the trachea, the 23 gauge iv catheter was quickly removed. Lithium or bleomycin was instilled through the PE-10 tubing. The instillation volume was 50 μl each administration for each mouse. The procedure time was around 15 minutes per mouse.
For Group 1 (n=1), no treatment was administered and the mouse was sacrificed as control.
The mice was sacrificed at 21 days after first lithium administration. The mice were sacrificed using pentobarbital 200 mg/kg ip. After the mice were sacrificed, the lungs were quickly harvested and perfused with 10% formalin buffer through the trachea. The lung tissue was then fixed in 10% formalin buffer for 3 days.
For Group 3 (n=6), the mice were pre-treated with intra-tracheal lithium instillation (0.15 mM in 50 μl saline) every other day for 3 administrations. 7 days after the final lithium pre-treatment, intra-tracheal bleomycin was instilled (0.04 U in 50 μl saline). The mice in this group were then sacrificed 14 days after bleomycin administration. The mice were sacrificed using pentobarbital 200 mg/kg ip. After the mice were sacrificed, the lungs were quickly harvested and perfused with 10% formalin buffer through the trachea. The lung tissue was then fixed in 10% formalin buffer for 3 days.
For Group 4 (n=5), only intra-tracheal bleomycin was instilled (0.04 U in 50 μl saline). The mice in this group were then sacrificed 14 days after bleomycin administration. The mice were sacrificed using pentobarbital 200 mg/kg ip. After the mice were sacrificed, the lungs were quickly harvested and perfused with 10% formalin buffer through the trachea. The lung tissue was then fixed in 10% formalin buffer for 3 days.
Following the 3 day period, macroscopical examination of the lung tissue was performed by dissection. The lung tissue were cut into 1-2 mm slices and visually inspected for areas of grey-white discoloration. […] The lung slices were then embedded in paraffin and sectioned into 5-μm-thick sections. Hematoxylin and eosin (H&E) and trichrome staining (abcam; ab150686) were performed for tissue samples from each group. The stained slides were then examined under light microscope (Olympus BX51) and photographed (Olympus DP-73 digital camera).
An Ashcroft score was then calculated for each of the group (T Ashcroft at al., Simple method of estimating severity of pulmonary fibrosis on a numerical scale. J Clin Pathol 1988; 41:467-470). The Ashcroft score provides a simple method of estimating severity of pulmonary fibrosis on a numerical scale.

Molecule	signs of lung tissue damage, macroscopic and microscopic (H&E, trichrome) (Group 2: lithium inhalation only)	Ashcroft score (Group 2: lithium inhalation only, 0.15 mM lithium carbonate 50 μl intratracheal every other day for 3 administrations, sacrificed at 21 days)	Ashcroft score (Group 3: intra-tracheal lithium 0.15 mM in 50 μl every other day for 3 administrations, bleomycin 0.04 U 7 days after final lithium, sacrificed 14 days after bleomycin)	signs of lung tissue damage, macroscopic and microscopic (H&E, trichrome) (Group 3: lithium pre-treatment followed by bleomycin)	pulmonary fibrosis development induced by bleomycin (lithium pre-treatment by inhalation, mice)	macroscopic examination of lung sections (grey-white discoloration) (Group 4: bleomycin alone)	microscopic examination of discoloured lung areas (Group 4: bleomycin alone)	Ashcroft score (Group 4: intra-tracheal bleomycin alone 0.04 U in 50 μl, sacrificed 14 days after bleomycin)
O=C([O-])[O-].[Li+].[Li+] [lithium carbonate]	did not show any macroscopically or microscopically sign of lung tissue damage	0	0	did not reveal any signs macroscopically or microscopically of lung tissue damage	completely abolishes	–	–	–
bleomycin	–	–	–	–	–	only areas of such discoloration were found in the lung tissue of Group 4 mice; also recorded: multiple areas of grey-white discoloration mostly in peri-pleural areas	profound fibrotic changes	4.03
